In US12605369B2, “Amido-substituted heterocyclic compounds and methods of use thereof for the treatment of herpes viruses” (Merck Sharp & Dohme LLC, priority 2019, dated 2026):
Where two headings read alike, the source gives them in different places.

What was measured:
[1] = tested on: HSV-2 Strain G; test: Viral qPCR assay, HSV-2 (Example 14); type: cell-based; conditions: Strain G in Vero or MRCS cells, 0.004-0.4 pfu/cell, viral genome copy number by qPCR, read-out: HSV2 Cell EC50
Protocol: (§1) MRCS and Vero cells were obtained from ATCC and were maintained at 37° C./5% CO2/90% relative humidity in Minimal Essential Medium with 10% fetal bovine serum, […], 100 units/mL penicillin and 100 ug/mL streptomycin. Assay plates were prepared by dispensing compounds dissolved in DMSO into wells of 384 well collagen-coated plates using an ECHO acoustic dispenser. Each test compound was tested in a 10-point, serial 3-fold dilution. Controls included uninfected cells and infected cells treated only with DMSO. Assays were initiated by mixing selected cells, in suspension, with virus, and dispensing 50 μl/well infected cells to pre-plated compounds. Plates were incubated at 37° C./5% CO2/90% relative humidity for ˜72 hours to permit genomic replication, and infected cells were lysed by the addition of an equal volume of lysis buffer (10 mM Tris-HCl, pH8, 50 mM KCl, 2 mM MgCl2, 0.45% NP-40, 0.45% Tween-20, and 100 μg/mL proteinase K). An aliquot of the lysate was then transferred to a 384-well PCR plate and incubated at 56° C. for 1 hour, and then at 95° C. for 10 minutes. Levels of a viral gene were measured in 10 ul qPCR assays using TaqMan® Gene Expression Master Mix (Applied Biosystems) and an 7900HT Fast Real-Time PCR System with 384-Well Block Module. 7-point, serial 10-fold dilutions of a plasmid standard were run on each plate to generate a standard curve, and genome copies numbers were calculated by plotting experimental Ct onto linear regression of the standard curve. Compound effects on viral genome copy number were normalized to the window defined by the controls. Calculated % effects were fit using a 4-parameter algorithm, and EC50 was reported. • HCMV: Strain AD169 was assayed in MRC-5 cells and was used at 0.05-0.1 pfu/cell. The assays were performed in either growth media or in the same media with 50% fetal bovine serum. Primer-probe set was Thermo Fisher Assay ID=AIFATFK. • HSV-1: Strain F was assayed in Vero or MRCS cells and was used at 0.0005-0.004 pfu/cell in growth medium. Primer-probe set was Thermo Fisher Assay ID=AIBJZIB. • HSV-2: Strain G was assayed in Vero or MRCS cells and was used at 0.004-0.4 pfu/cell in growth medium. Primer-probe set was Thermo Fisher Assay ID=AICSXOJ.

[2] = target: T1, varicella zoster virus DNA polymerase (Varicella-zoster virus, UniProt P09252); test: VZV polymerase assay (AlphaLISA, Example 15); type: biochemical; conditions: VZV polymerase 0.4 nM; 30 min pre-incubation; 60 min at 37° C.
T1 construct: made in house; host or cells: SF21 insect cells (baculovirus vector)
T1 sequence (P09252 whole entry): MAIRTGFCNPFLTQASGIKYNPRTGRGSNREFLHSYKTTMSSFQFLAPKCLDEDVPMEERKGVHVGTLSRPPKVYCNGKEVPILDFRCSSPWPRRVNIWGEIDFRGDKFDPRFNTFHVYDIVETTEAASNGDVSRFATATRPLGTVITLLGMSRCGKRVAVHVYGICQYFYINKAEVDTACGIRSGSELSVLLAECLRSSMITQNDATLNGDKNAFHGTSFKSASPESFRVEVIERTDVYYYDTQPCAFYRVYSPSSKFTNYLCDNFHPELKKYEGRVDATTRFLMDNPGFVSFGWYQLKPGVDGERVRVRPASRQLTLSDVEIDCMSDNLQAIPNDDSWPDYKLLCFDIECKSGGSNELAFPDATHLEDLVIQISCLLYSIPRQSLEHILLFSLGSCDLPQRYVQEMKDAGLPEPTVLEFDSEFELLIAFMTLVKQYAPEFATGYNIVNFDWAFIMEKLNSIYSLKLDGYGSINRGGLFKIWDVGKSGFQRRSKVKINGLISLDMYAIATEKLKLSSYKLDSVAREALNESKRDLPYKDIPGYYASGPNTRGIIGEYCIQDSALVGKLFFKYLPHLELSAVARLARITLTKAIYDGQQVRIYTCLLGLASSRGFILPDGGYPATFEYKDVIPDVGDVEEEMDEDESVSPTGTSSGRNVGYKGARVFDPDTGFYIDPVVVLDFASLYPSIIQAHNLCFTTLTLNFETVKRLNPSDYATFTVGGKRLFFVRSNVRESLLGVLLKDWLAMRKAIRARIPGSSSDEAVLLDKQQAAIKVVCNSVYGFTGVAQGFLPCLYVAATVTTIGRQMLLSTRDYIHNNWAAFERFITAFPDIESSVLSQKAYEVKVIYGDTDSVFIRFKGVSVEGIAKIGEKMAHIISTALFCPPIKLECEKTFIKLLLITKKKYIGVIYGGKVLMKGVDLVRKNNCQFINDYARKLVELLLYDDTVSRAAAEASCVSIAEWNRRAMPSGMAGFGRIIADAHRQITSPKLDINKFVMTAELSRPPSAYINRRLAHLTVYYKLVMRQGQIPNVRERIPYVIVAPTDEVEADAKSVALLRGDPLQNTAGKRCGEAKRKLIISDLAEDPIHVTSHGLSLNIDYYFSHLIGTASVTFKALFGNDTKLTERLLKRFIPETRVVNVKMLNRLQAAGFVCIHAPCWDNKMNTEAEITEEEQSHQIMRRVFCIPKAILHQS
Protocol: (§2) CMV and VZW Polymerase Assays
(§3) Human cytomegalovirus and varicella zoster virus DNA polymerases were expressed via baculovirus vector in SF21 cells and purified. Heterodimeric nucleic acid substrate used in the herpesvirus polymerase reactions were generated by annealing a 59-mer template to a 17-mer digoxigenin-labeled primer. Polymerase (HCMV final concentration of 0.2 nM; VZV final concentration of 0.4 nM) was combined with an inhibitor compound or DMSO in assay buffer (10 mM HEPES, pH 7.5, 25 mM KCl, 25 mM NaCl, 5 mM MgCl2, 5% glycerol, 0.67 mg/ml bovine serum albumin, and 1 mM tris(2-carboxyethyl)phosphine)), and this mixture was pre-incubated for 30 minutes at room temperature in 384-well microtiter plates. The polymerization reaction was initiated by the addition of template/primer substrate (final concentration: 1.6 nM) and dNTPs (final concentration: 24 nM dCTP, 24 nMdGTP, 16 nM dATP, 16 nM dTTP, and 0.8 nM biotin-dUTP). After a 60 minute incubation period at 37° C., the reactions were terminated using quench buffer (25 mM HEPES pH 7.5, 100 mM NaCl, 0.25% Tween-20, 12 mM EDTA, and 1 mg/ml bovine serum albumin). Incorporation of biotinylated UTP was detected with 2.5-5 μg/mL anti-DIG AlphaLISA acceptor beads and 5-10 μg/mL streptavidin AlphaLISA donor beads (PerkinElmer). Compound effects were normalized to the window defined by the controls (DMSO only and pre-quenched wells) and were fit using a 4-parameter algorithm to report an IC50.

[3] = tested on: HCMV Strain AD169; test: Viral qPCR assay, HCMV (Example 14); type: cell-based
Protocol: as §1

[4] = tested on: HSV-1 Strain F; test: Viral qPCR assay, HSV-1 (Example 14); type: cell-based; conditions: Strain F in Vero or MRCS cells, 0.0005-0.004 pfu/cell, viral genome copy number by qPCR, read-out: HSV1 Cell EC50
Protocol: as §1

[5] = target: T2, Human cytomegalovirus DNA polymerase (Human cytomegalovirus, UniProt P08546); test: CMV polymerase assay (AlphaLISA, Example 15); type: biochemical; conditions: HCMV polymerase 0.2 nM; 30 min pre-incubation; 60 min at 37° C.
T2 construct: made in house; host or cells: SF21 insect cells (baculovirus vector)
T2 sequence (P08546 whole entry): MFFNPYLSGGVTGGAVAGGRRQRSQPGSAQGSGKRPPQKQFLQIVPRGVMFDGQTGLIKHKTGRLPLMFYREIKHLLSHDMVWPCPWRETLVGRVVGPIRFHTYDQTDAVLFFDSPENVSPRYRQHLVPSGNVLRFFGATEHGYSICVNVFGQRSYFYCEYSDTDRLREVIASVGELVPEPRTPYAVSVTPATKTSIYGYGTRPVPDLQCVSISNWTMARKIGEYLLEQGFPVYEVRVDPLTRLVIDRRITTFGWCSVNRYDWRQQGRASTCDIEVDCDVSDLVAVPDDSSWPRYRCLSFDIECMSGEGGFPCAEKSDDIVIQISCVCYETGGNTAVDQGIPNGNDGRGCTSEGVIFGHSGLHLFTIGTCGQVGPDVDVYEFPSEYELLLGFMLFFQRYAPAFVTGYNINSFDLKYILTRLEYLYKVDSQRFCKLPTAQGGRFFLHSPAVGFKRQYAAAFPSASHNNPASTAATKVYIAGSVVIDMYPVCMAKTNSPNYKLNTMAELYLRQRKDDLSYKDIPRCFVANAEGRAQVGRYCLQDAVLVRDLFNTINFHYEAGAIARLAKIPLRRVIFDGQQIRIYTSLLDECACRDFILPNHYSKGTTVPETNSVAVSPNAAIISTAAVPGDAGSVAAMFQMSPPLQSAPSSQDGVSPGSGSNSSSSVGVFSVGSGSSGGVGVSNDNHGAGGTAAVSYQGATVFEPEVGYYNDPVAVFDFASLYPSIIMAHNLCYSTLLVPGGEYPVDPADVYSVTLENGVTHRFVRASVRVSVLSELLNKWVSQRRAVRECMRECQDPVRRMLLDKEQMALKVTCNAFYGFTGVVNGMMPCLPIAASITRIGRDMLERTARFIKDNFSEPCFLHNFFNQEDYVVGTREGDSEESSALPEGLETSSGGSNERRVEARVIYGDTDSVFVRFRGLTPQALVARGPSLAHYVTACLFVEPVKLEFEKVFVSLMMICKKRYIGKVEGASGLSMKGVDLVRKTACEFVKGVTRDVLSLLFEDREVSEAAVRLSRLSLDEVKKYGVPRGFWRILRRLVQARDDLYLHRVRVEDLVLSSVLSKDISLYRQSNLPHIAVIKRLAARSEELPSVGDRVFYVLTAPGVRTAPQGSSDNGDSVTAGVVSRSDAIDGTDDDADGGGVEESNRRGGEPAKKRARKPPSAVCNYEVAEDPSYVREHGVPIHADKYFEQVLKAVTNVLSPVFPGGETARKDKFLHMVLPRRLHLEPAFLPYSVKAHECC
Protocol: as §2, §3

[6] = Human alphaherpesvirus 2, Vero, 72 h
[7] = Human betaherpesvirus 5, AD169, MRC5, 72 h, Strain AD169 in MRC-5 cells, 0.05-0.1 pfu/cell, ~72 hours, viral genome copy number by qPCR, growth media or 50% fetal bovine serum, read-out: CMV Cell EC50
[8] = Human alphaherpesvirus 1, Vero, 72 h
[9] = Strain AD169 in MRC-5 cells, 0.05-0.1 pfu/cell, ~72 hours, viral genome copy number by qPCR, growth media or 50% fetal bovine serum, read-out: CMV Cell EC50

SMILES	EC50 [1, 6] [µM]	IC50 [2] [µM]	EC50 [3, 7] [nM]	EC50 [4, 8] [µM]	IC50 [5] [µM]	EC50 ([3]; Human betaherpesvirus 5, AD169, MRC5, 72 h, read-out: CMV Cell EC50 (nM)) [nM]	EC50 ([1]; ~72 hours) [µM]	EC50 [3, 9] [nM]	EC50 ([4]; ~72 hours) [µM]
COc1nc(NC(=O)Cc2ccc(C#N)cc2)ccc1C[C@H]1COC(=O)N1 [Compound 13]	0.191	0.008	128	0.3	0.022				
COc1nc(NC(=O)Cc2ccc(Cl)cc2CO)ccc1C[C@H]1COC(=O)N1 [Compound 3]	0.504		178	0.396	0.012				
COc1nc(NC(=O)N2Cc3ccc(Cl)cc3C2)ccc1C[C@H]1COC(=O)N1 [Compound 12]		4.82	> 9900		3.77				
COc1nc(NC(=O)C2CCc3cc(C#N)ccc3O2)ccc1C[C@H]1COC(=O)N1 (stereo partly shown) [Compound 23]	0.056	0.0004	38	0.044	0.0004				
COc1nc(N2CCN(c3ccc(C#N)c(F)c3)C2=O)ccc1C[C@H]1COC(=O)N1 [Compound 11]					0.03	596			
COc1nc(N2CCN(Cc3ccc(C#N)cc3)C2=O)ccc1C[C@H]1COC(=O)N1 [Compound 22]	0.1		318	0.131	0.035				
COc1nc(N2CCC(F)(c3ccc(C#N)cc3)C2=O)ccc1C[C@H]1COC(=O)N1 (single isomer, unassigned) [Compound 8]	0.884	0.034	434	0.958	0.01				
COc1nc(NC(=O)[C@@H]2Cc3ccc(C#N)cc3CN2C)ccc1C[C@H]1COC(=O)N1 [Compound 28]	0.802		175	0.381					
COc1nc(NC(=O)Cc2ccc(Cl)cc2COCc2ccccc2)ccc1C[C@H]1COC(=O)N1 [Compound 2]			3550		0.108				
COc1nc(N2CCN(c3ccc(C#N)cc3)C2=O)ccc1C[C@H]1COC(=O)N1 [Compound 21]	0.09		369	0.309	0.029				
COc1nc(NC(=O)Cc2ccc(C#N)cc2F)ccc1C[C@H]1COC(=O)N1 [Compound 15]	0.523	0.008	83	0.453	0.0075				
COc1nc(NC(=O)C2(C)CCc3cc(C#N)ccc3O2)ccc1C[C@H]1COC(=O)N1 (stereo partly shown) [Compound 34]							> 80.2	39800	> 80.2
COc1nc(N2CCN(c3ccc(Cl)cc3)C2=O)ccc1C[C@H]1COC(=O)N1 [Compound 10]	0.291		522	0.282	0.014				
COc1nc(NC(=O)C2CN(C)c3cc(C#N)ccc3O2)ccc1C[C@H]1COC(=O)N1 (stereo partly shown) [Compound 27]							12.9	10600	62
COc1nc(NC(=O)C2CCc3cc(C#N)ccc32)ccc1C[C@H]1COC(=O)N1 (stereo partly shown) [Compound 19]	0.259	0.007	475	0.311	0.01				
COc1nc(NC(=O)C2Cc3ccc(C#N)cc3CN2)ccc1C[C@H]1COC(=O)N1 (stereo partly shown) [Compound 35]							0.583	206	0.252
COc1nc(NC(=O)C2CCc3cc(Cl)ccc32)ccc1C[C@H]1COC(=O)N1 (stereo partly shown) [Compound 17]	0.099		133	0.127	0.023				
COc1nc(NC(=O)C2CCc3cc(C#N)ccc3C2)ccc1C[C@H]1COC(=O)N1 (stereo partly shown) [Compound 32]							0.173	73	0.117
COCc1cc(Cl)ccc1CC(=O)Nc1ccc(C[C@H]2COC(=O)N2)c(OC)n1 [Compound 5]	0.318	0.018	116	0.166	0.012				
COc1nc(NC(=O)C2Cc3ccc(C#N)cc3CN2)ccc1C[C@H]1COC(=O)N1 (stereo partly shown) [Compound 36]							11.1	1660	1.94
COc1nc(NC(=O)Cc2ccc(C(F)(F)F)c(F)c2)ccc1C[C@H]1COC(=O)N1 [Compound 14]	0.134		486	0.281	0.011				
COc1nc(NC(=O)C2(C)CCc3cc(C#N)ccc3O2)ccc1C[C@H]1COC(=O)N1 (stereo partly shown) [Compound 33]							11.1	1660	8.92
COc1nc(NC(=O)C2CN(C)c3cc(C#N)ccc3O2)ccc1C[C@H]1COC(=O)N1 (stereo partly shown) [Compound 26]							0.073	39	0.06
COc1nc(NC(=O)C2CCc3cc(C#N)ccc3N2C)ccc1C[C@H]1COC(=O)N1 (stereo partly shown) [Compound 30]							10.7	2720	7.44
COc1nc(NC(=O)C2CCc3cc(C#N)ccc3N2C)ccc1C[C@H]1COC(=O)N1 (stereo partly shown) [Compound 29]							4.99	345	3.51
COc1nc(NC(=O)C2CCc3cc(C#N)ccc3C2)ccc1C[C@H]1COC(=O)N1 (stereo partly shown) [Compound 31]							48.4	11100	70.1
